Structures can show the parent of a compound that is named as a salt. Where two headings read alike, the source gives them in different places.
Legend:
PKC epsilon = target: T1, PKC epsilon (Homo sapiens, UniProt Q02156); assay: Biochemical assay for PKC epsilon (fluorescence polarization, Protein Kinase C Assay Kit, Red); details: read-out: IC50 μM PKCε
T1 construct: purchased Invitrogen P2282
T1 sequence (Q02156 1-737): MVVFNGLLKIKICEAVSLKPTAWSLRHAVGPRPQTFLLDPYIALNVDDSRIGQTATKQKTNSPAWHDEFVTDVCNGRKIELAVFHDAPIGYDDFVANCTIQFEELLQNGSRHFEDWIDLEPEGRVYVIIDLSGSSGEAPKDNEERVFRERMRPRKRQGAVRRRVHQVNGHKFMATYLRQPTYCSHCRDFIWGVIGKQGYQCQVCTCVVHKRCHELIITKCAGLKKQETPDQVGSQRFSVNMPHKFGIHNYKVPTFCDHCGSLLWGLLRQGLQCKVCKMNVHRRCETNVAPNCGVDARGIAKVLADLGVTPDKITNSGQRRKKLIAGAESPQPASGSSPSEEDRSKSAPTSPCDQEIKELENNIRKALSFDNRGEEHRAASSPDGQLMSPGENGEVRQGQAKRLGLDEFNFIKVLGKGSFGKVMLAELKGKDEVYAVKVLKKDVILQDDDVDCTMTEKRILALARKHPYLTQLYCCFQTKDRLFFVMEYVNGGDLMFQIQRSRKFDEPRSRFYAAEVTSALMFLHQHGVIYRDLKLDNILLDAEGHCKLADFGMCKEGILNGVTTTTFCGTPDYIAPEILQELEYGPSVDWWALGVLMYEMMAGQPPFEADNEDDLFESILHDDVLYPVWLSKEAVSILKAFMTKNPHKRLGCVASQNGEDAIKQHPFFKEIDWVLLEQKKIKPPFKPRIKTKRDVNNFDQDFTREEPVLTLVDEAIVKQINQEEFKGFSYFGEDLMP
Procedure, shortened: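 PKC epsilon at 10 ng/ml final was preincubated 30 min at room temperature with compound in HEPES pH 7.4 with DTT and Triton X-100. ATP/protein substrate was then added in buffer with MgCl2 and CaCl2 for 80 min. The reaction was stopped with EDTA, phosphorylation was detected by fluorescence polarization with rhodamine tracer and anti-phosphoserine antibody, and IC50 values came from curve fits.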

PKC theta = target: T2, PKC theta (Homo sapiens, UniProt Q04759); assay: Biochemical assay for PKC theta (fluorescence polarization, Protein Kinase C Assay Kit, Red)
T2 construct: purchased Invitrogen P2996
Procedure: The compounds were tested for inhibition of PKC theta.
The inhibition assays were performed with a fluorescence polarization (FP) assay using the commercially available Protein Kinase C Assay Kit, Red, from Invitrogen (Product ID. No. P2941), essentially in accordance with the protocol supplied by the manufacturer. The substrate used was […] (Mw 1561), also obtained from Invitrogen (Product ID No. P2760). The isozyme PKC theta was also obtained from Invitrogen (Product ID No. P2996).
Staurosporine was used as a positive control (2 μM).
To perform the assay, 2 μl, of a solution of the compound to be tested in DMSO (at each concentration) was added to 6 μl of a solution of the enzyme in 10 mM HEPES, 5 mM dithiotreitol, 0.1% Triton X-100, pH 7.4. The final concentration of the enzymes was 60 ng/ml.
After incubating for 30 minutes at room temperature, 4 μl of a mixture of ATP and the protein substrate in 60 mM HEPES (pH7.4), 15 mM MgCl2, 0.3 mM CaCl2, 0.06% NP40 was added. The final concentration of the ATP was 2.5 μM and final concentration of protein substrate was 1 μM.
After incubating for 80 minutes at room temperature, 3 μl of a mix solution of 500 mM EDTA (stop solution) and the Rhodamine-based PKC Red Tracer (from the Protein Kinase C Assay Kit) in BGG/phosphate buffer (pH7.4) with 0.02% NaN3 and 0.1% Triton X-100 was added and 5 μl of a the Anti-Phosphoserine antibody (also from the Protein Kinase C Assay Kit) in BGG/phosphate buffer (pH7.4) with 0.02% NaN3.
The mixture thus obtained (total volume: 20 μl) was incubated for 60 minutes at room temperature, upon which the fluorescence polarization was measured using an automated plate reader (Perkin Elmer, Model Envision 2100-0010 HTS) with FP filters for rhodamine: excitation fitter FITC FP 531 and emission filters FITC FP P-pol 595 and FITC FP S-pol 595 (Perkin-Elmer). The results were fitted to a curve using the XL-Fit algorithm and IC50 values were calculated for each fitted curve, again using the XL-Fit algorithm.

human ROCKα/ROCKII mix = target: T3, human ROCKα/ROCKII mix (Homo sapiens, UniProt O75116); assay: Biochemical assay for ROCK (fluorescence polarization, ROCK IMAP Kit)
T3 construct: purchased Upstate Biotechnology 14-451

PKCε = assay: Reporter assay (PathDetect trans reporter, Elk/SEAP) in reporter cell-lines over-expressing PKCε; type: cell-based
Description: Whereas the reporter assay is focused on PKCε specific inhibition in a recombinant system, the monocytes assay is a biomarker assay that can be performed in isolated monocytes, full blood and in vivo to follow the pharmacological reduction of cytokine production:
The reporter assay exploits the effect of over-expressed PKCε on kinase activation and phosphorylation of a transcription factor to evaluate the potency and selectivity of PKCε inhibitors in a cellular context.
It has been shown by jae-Won Soh et al (MCB, February 1999 p 1313-1324) that over-expression of PKC epsilon results in the activation of MAPK-pathway (c-raf/MEK/ERK) leading to the activation of Elk transcription factor. This event can be monitored using the PathDetect trans reporter assay system (Stratagene): pFA2-ELK codes for a fusion protein between the Gal4 DNA binding domain and the transactivation domain of Elk which drives the expression of a secreted alkaline phosphatase (SEAP) reporter gene.
Compounds are incubated with reporter cell-lines either over-expressing PKCε, leading to continued activation of the kinase, or mock transfected cells. Inhibition of the PKCε induced signal in the absence of an effect on the basal level (mock transfected cells) is indicative for selective PKCε inhibition.

[1] = Table 2, compounds of Formula XIII
[2] = compounds of Formula XIV, Table 3

T3 sequence (O75116 11-552 limits assumed): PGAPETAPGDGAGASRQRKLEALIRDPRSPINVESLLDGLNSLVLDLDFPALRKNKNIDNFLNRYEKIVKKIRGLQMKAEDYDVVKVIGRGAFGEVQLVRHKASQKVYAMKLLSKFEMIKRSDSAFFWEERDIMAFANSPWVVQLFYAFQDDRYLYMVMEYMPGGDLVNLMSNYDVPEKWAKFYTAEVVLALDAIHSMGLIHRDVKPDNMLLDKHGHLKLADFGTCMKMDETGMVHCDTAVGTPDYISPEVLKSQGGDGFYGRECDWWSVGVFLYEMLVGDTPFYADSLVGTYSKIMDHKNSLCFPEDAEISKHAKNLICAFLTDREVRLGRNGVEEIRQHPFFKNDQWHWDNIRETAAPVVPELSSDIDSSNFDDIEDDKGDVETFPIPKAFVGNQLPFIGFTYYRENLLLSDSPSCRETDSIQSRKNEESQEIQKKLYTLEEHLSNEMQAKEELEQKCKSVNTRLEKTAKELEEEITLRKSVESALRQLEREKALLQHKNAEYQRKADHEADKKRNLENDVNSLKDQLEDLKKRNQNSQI
T2 sequence (Q04759 whole entry): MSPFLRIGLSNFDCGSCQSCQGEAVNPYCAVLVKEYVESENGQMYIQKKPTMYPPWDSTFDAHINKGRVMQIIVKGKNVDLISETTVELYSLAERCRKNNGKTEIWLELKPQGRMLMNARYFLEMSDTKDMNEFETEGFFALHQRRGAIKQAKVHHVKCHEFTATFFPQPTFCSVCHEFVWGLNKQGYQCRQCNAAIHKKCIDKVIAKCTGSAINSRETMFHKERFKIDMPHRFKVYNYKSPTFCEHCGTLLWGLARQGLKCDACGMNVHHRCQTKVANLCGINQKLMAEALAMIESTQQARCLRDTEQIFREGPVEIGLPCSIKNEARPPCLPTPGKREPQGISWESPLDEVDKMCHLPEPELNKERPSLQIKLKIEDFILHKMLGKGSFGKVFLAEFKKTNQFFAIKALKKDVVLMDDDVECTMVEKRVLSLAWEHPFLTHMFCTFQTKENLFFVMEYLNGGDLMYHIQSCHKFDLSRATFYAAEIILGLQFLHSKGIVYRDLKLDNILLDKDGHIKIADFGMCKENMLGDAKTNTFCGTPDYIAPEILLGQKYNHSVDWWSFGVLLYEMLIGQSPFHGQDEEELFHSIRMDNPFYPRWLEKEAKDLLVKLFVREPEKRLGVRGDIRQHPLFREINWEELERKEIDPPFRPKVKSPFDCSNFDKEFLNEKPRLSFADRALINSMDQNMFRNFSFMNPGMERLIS

IC50 (PKC epsilon) [µM]	IC50 (human ROCKα/ROCKII mix) [µM]	Compound	further results
5 to 50	0.5 to 5	NC(c1ccc(C(=O)Nc2ccncc2)cc1)C1CCCN1C(=O)C1CCc2cc(F)ccc21 (stereo not drawn) [Compound 610, 4-{Amino-[1-(5-fluoro-indane-1-carbonyl)-pyrrolidin-2-yl]-methyl}-N-pyridin-4-yl-benzamide]	
0.5 to 5	0.5 to 5	NC(c1ccc(C(=O)Nc2ccncc2)cc1)C1CCCN1C(=O)C1CCCc2ccccc21 (stereo not drawn) [Compound 613, 4-{Amino-[1-(1,2,3,4-tetrahydro-naphthalene-1-carbonyl)-pyrrolidin-2-yl]-methyl}-N-pyridin-4-yl-benzamide]	
5 to 50	0.5 to 5	NC(c1ccc(C(=O)Nc2ccncc2)cc1)C1CCCN1C(=O)C1CCOc2ccccc21 (stereo not drawn) [Compound 615, 4-{Amino-[1-(chroman-4-carbonyl)-pyrrolidin-2-yl]-methyl}-N-pyridin-4-yl-benzamide]	
0.5 to 5	0.5 to 5	NC(c1ccc(C(=O)Nc2ccncc2)cc1)C1CCCN1C(=O)C1CCOc2ccc(Cl)cc21 (stereo not drawn) [Compound 616, 4-{Amino[1-(6-chloro-chroman-4-carbonyl)-pyrrolidin-2-yl]-methyl}-N-pyridin-4-benzamide]	
0.5 to 5	0.5 to 5	NC(c1ccc(C(=O)Nc2ccncc2)cc1)C1CCCN1C(=O)C1CCOc2ccc(F)cc21 (stereo not drawn) [Compound 617, 4-{Amino[1-(6-fluoro-chroman-4-carbonyl)-pyrrolidin-2-yl]-methyl}-N-pyridin-4-benzamide]	
0.5 to 5	0.5 to 5	NC(c1ccc(C(=O)Nc2ccncc2)cc1)C1CCCN1C(=O)C1CCSc2ccccc21 (stereo not drawn) [Compound 618, 4-{Amino[1-(thiochroman-4-carbonyl)-pyrrolidin-2-yl]-methyl}-N-pyridin-4-yl-benzamide]	
0.5 to 5	0.5 to 5	NC(c1ccc(C(=O)Nc2ccncc2)cc1)C1CCCN1C(=O)C1CCSc2ccc(F)cc21 (stereo not drawn) [Compound 619, 4-{Amino[1-(6-fluoro-thiochroman-4-carbonyl)-pyrrolidin-2-yl]-methyl}-N-pyridin-4-yl-benzamide]	
5 to 50	5 to 50	NC(c1ccc(C(=O)Nc2ccncc2)cc1)C1CCCN1C(=O)C1CCCCc2ccc(F)cc21 (stereo not drawn) [Compound 620, 4-{Amino-[1-(3-fluoro-6,7,8,9-tetrahydro-5H-benzocycloheptene-5-carbonyl)-pyrrolidin-2-yl]-methyl}-N-pyridin-4-yl-benzamide]	
0.5 to 5	0.05 to 0.5	NC(c1ccc(C(=O)Nc2ccncc2)cc1)C1CCCN1C(=O)C1CCCc2sccc21 (stereo not drawn) [Compound 621, 4-{Amino-[1-(4,5,6,7-tetrahydro-benzo[b]thiophene-4-carbonyl)-pyrrolidin-2-yl]-methyl}-N-pyridin-4-yl-benzamide]	

Second part, the compound before the results:

Compound	IC50 (PKC epsilon) [µM]	IC50 (human ROCKα/ROCKII mix) [µM]	further results
NC(CNC(=O)C1(c2ccc(Cl)cc2)CC1)c1ccc(C(=O)Nc2ccncc2)cc1 (stereo not drawn) [Compound 168, 4-(1-Amino-2-{[1-(4-chloro-phenyl)-cyclopropanecarbonyl]-amino}-ethyl)-N-pyridin-4-yl-benzamide dihydrochloride]			IC50 (PKC epsilon; [1]): < 0.05 µM; IC50 (PKC theta): 50 to 500 nM; IC50 (human ROCKα/ROCKII mix; [1]): 0.05 to 0.5 µM
NC(CNC(=O)C1(c2ccc(F)cc2)CC1)c1ccc(C(=O)Nc2ccncc2)cc1 (stereo not drawn) [Compound 340, 4-(1-Amino-2-{[1-(4-fluoro-phenyl)-cyclopropanecarbonyl]-amino}-ethyl)-N-pyridin-4-yl-benzamide]			IC50 (PKC epsilon; [1]): < 0.05 µM; IC50 (PKCε): < 5000 nM
NC(CNC(=O)C1CCCCc2ccc(F)cc21)c1ccc(C(=O)Nc2ccncc2)cc1 (stereo not drawn) [Compound 356, 3-Fluoro-6,7,8,9-tetrahydro-5H-benzocycloheptene-5-carboxylic acid {2-amino-2-[4-(pyridin-4-ylcarbamoyl)-phenyl]-ethyl}-amide]			IC50 (PKC epsilon; [1]): < 0.05 µM; IC50 (human ROCKα/ROCKII mix; [1]): 0.05 to 0.5 µM; IC50 (PKCε): < 5000 nM
NC(CNC(=O)C1(c2ccc(Cl)cc2)CC1)c1ccc(C(=O)Nc2ccnc3[nH]ccc23)cc1 (stereo not drawn) [Compound 371, 4-(1-Amino-2-{[1-(4-chloro-phenyl)-cyclopropanecarbonyl]-amino}-ethyl)-N-(1H-pyrrolo[2,3-b]pyridin-4-yl)-benzamide dihydrochloric acid salt]			IC50 (PKC theta): < 50 nM; IC50 (PKCε): < 5000 nM
N[C@H](CC(=O)N[C@@H]1CCCc2ccccc21)c1ccc(C(=O)Nc2ccncc2)cc1 [Compound 373, 4-{(R)-1-Amino-2-[(R)-(1,2,3,4-tetrahydro-naphthalen-1-yl)carbamoyl]-ethyl}-N-pyridin-4-yl-benzamide dihydrochloric acid salt]	< 0.05	< 0.05	IC50 (PKCε): < 5000 nM
NC(c1ccc(C(=O)Nc2ccncc2)cc1)C1CCCN1C(=O)C1CCc2ccccc21 (stereo not drawn) [Compound 608, 4-{Amino-[1-(indane-1-carbonyl)-pyrrolidin-2-yl]-methyl}-N-pyridin-4-yl-benzamide]	0.5 to 5	0.5 to 5	
NC(c1ccc(C(=O)Nc2ccncc2)cc1)C1CCCN1C(=O)C1CC(=O)c2ccccc21 (stereo not drawn) [Compound 609, 4-{Amino-[1-(3-oxo-indane-1-carbonyl)-pyrrolidin-2-yl]-methyl}-N-pyridin-4-yl-benzamide]	0.5 to 5	0.5 to 5	
CC(C)(NC(=O)CC(N)c1ccc(C(=O)Nc2ccncc2)cc1)c1ccc(Cl)cc1 (stereo not drawn) [Compound 622, 4-{1-Amino-2-[1-(4-chloro-phenyl)-1-methyl-ethylcarbamoyl]-ethyl}-N-pyridin-4-yl-benzamide]			IC50 (PKC epsilon; [2]): 0.05 to 0.5 µM; IC50 (human ROCKα/ROCKII mix; [2]): 0.05 to 0.5 µM
Bicyclo[4.2.0]octa-1(6),2,4- triene-7-carboxylic acid {2- amino-2-[4-(pyridin-4- ylcarbamoyl)-phenyl]-ethyl}- methyl-amide [Compound 451]	5 to 50	0.05 to 0.5	
Chroman-4-carboxylic acid {2-amino-2-[4-(pyridin-4- ylcarbamoyl)-phenyl]-ethyl}- methyl-amide [Compound 514]	5 to 50	0.5 to 5	
Indan-1-carboxylic acid {2- amino-2-[4-(pyridin-4- ylcarbamoyl)-phenyl]-ethyl}- methyl-amide [Compound 507]	5 to 50	0.5 to 5	
N-{2-Amino-2-[4-(pyridin-4- ylcarbamoyl)-phenyl]-ethyl}- nicotinamide [Compound 107]			IC50 (PKC epsilon; [1]): 0.5 to 5 µM; IC50 (human ROCKα/ROCKII mix; [1]): 0.5 to 5 µM

From US20100168102A9, “Amide Derivatives as Kinase Inhibitors” (Devgen NV, priority 2005, published 2010)
